According to a melting point compilation (Tetko et al.; mined from patent text by program, amines drawn as free bases though some values may be those of a salt):

With `CN(C)n1nnc2cc3c(cc2c1=O)OC1CCCN1C3=O` (configuration not stated) the melting point was 180 °C. Compound `CCCn1c(COCC)nc2c(N)nc3ccc(OC4CCNCC4)cc3c21` has a melting point of 176 to 178 °C. For `Cc1cc(CCC(=O)OC(C)(C)C)cc(-c2nc(=O)c3ccc(Cl)cc3s2)n1`, the melting point was 186 to 188 °C. Work on `CNc1nnc(-c2ccc3ncn(-c4ccc(OC(F)(F)F)cc4)c3c2)o1` yielded a melting point of 183 to 184 °C. `CCN(CC)C(=O)Cc1c(-c2ccc(C)cc2)nc2c(C)cc(C)nn12` showed a melting point of 155 to 158 °C. In the case of `Nc1sc2c(c1C(=O)c1ccc3ccccc3c1)CCC(Cc1ccccc1)C2` (configuration not stated), the melting point was 69 to 70 °C. In the case of `COc1ccc(C(O)CN2CCNC2=O)cc1OC` (configuration not stated), the melting point was 166 °C. In the case of `CC(C)Oc1nn(CCO)cc1C(=O)NCc1ccc(Cl)cc1Cl`, the melting point was 122 to 123 °C. `C#CCn1c(=O)n(C)c(=O)c2c1nc(Cl)n2Cc1ccccc1` showed a melting point of 169 to 172 °C. Compound `CNc1c(F)cc2c(=O)c(C(=O)O)cn(-c3ccc(F)c(O)c3)c2c1Cl` has a melting point of over 280 °C. Work on `O=S(=O)(Nc1cccc(CCOCc2ccc(-c3ccc(Cl)c(Cl)c3)cc2)c1)C(F)(F)F` yielded a melting point of 74 to 75 °C. Compound `CC(=O)N1c2ccc(-c3ccc(C#N)cc3)cc2C(Nc2ccc(F)cc2)CC1C` (configuration not stated) has a melting point of 140 °C. Work on `CS(=O)(=O)c1ccc(-c2nc3cc(C4=CCN(S(=O)(=O)CCCO)CC4)ccc3o2)c(F)c1` yielded a melting point of 184 to 186 °C. `CC(=O)OC(C(Oc1ccc(Cl)cc1)n1cncn1)C(C)(C)CCl` (configuration not stated) showed a melting point of 111 to 117 °C. `COc1ccc(-c2ccc(-c3ccc(OC)cc3)c(-c3ccc(OCc4ccccc4)cc3)n2)cc1` gave a melting point of 99 to 102 °C. With `COc1cccc(N2CC(=O)N(C)C(=O)N2)c1` the melting point was 120 to 122 °C. In the case of `C=C(C)C(=O)NCC(C)OC(=O)C(Br)(Br)Br` (configuration not stated), the melting point was 104 to 105 °C. In the case of `O=c1cc(-c2nnn[nH]2)occ1-c1ccccc1`, the melting point was 237 to 238 °C. With `Fc1cc(-n2cnnn2)ccc1-c1ccc2oc(C3CCNCC3)nc2c1` the melting point was 148 to 151 °C. Compound `COc1cc(OC)c2c(C)c(CCN3CCN(c4ccccc4F)CC3)c(=O)oc2c1` has a melting point of 152 to 153 °C. `COc1c(O)c(C=O)cc2ccoc12` showed a melting point of 60 to 62 °C. In the case of `CN1C2CCC1CC(N(C)S(=O)(=O)c1ccc(Nc3nccc(Nc4ccc(F)cc4)n3)cc1)C2` (configuration not stated), the melting point was 184 °C. With `COc1ccc2c(c1)C(CCNC(C)=O)CCO2` (configuration not stated) the melting point was 138 °C. `NC(=O)Cc1ccc2c(c1)Cc1c-2[nH]c(=O)c2nccn12` showed a melting point of over 260 °C. In the case of `CCC1(c2ccc(COc3ccc(CO)c(CO)c3)s2)OCCO1`, the melting point was 78 to 80 °C. Work on `CNC(=O)c1c(N)n(C2CCCC2)c2nc(Cl)ccc2c1=O` yielded a melting point of 256 to 258 °C. With `O=C(Nc1ccc(N(CCCl)CCCl)cc1)Nc1cccc([N+](=O)[O-])c1` the melting point was 246 to 247 °C. Work on `Cc1nc(C(=O)O)co1` yielded a melting point of over 250 °C. `CC(C)(C)C1=NN(c2ccc(C(=O)O)cc2)C(c2ccc(O)cc2)C1` (configuration not stated) showed a melting point of 259 °C. `CC(C)(OCc1nn(C(=O)c2ccccc2)c2ccccc12)C(=O)O` showed a melting point of 132 to 135 °C. `CC[C@H](Nn1c([C@H](C)OC)nnc1[C@H](C)OC)C(OC)OC` gave a melting point of 67 to 68 °C. Compound `CS(=O)(=O)N(CCc1ccccc1)Cc1cccnc1` has a melting point of 94 to 95 °C. Work on `Cc1c(Cc2ccccc2)c(=O)[nH]c2cc(O)cc(O)c12` yielded a melting point of 307 to 312 °C. In the case of `COC(=O)c1cccc(-c2nc(COc3ccc(COc4nn(-c5ccccc5)cc4C=O)cc3)c(C)o2)c1`, the melting point was 161 to 162 °C. `O=C(O)c1ccccc1CN1CCc2sccc2C1` showed a melting point of 200 to 205 °C. `O=C(NC(=O)N(SC(Cl)(Cl)Cl)c1ccc(Oc2ccc(C(F)(F)F)cc2Cl)cc1)c1ccccc1Cl` gave a melting point of 68 to 71 °C. For `O=C1CCC(c2ccccc2)(N2CCCCC2)CC1`, the melting point was 116 to 117 °C. With `COc1nc(C(C)(C)O)cnc1NS(=O)(=O)c1cccc(Cl)c1Cl` the melting point was 192 to 193 °C. In the case of `OCc1nc(-c2cccs2)cs1`, the melting point was 113 to 114 °C. With `O=C1N(Cc2ccc(Cl)s2)c2ccccc2C12COc1ccc(Br)cc12` (configuration not stated) the melting point was 140 to 142 °C. Work on `Cc1nc(-c2cccc(I)c2)no1` yielded a melting point of 90 to 91.5 °C. For `Cc1ccc(N2CCCN(C(=O)OC(C)(C)C)CC2)cc1[N+](=O)[O-]`, the melting point was 103 to 106 °C. Work on `C#Cc1ccc2c(c1)C(C)(C)CCS2=O` (configuration not stated) yielded a melting point of 105 to 107 °C. `CN(C)CC1(c2cccc(C(F)(F)F)c2)CCN(C(=O)CN2CCN(c3ccccc3)CC2)CC1` gave a melting point of 123 to 124 °C. `O=C(CC(=O)c1cccc(C(F)(F)F)c1NC(=O)C(F)F)Nc1nccs1` showed a melting point of 206 °C. With `COc1c(C)cnc(CSc2nc3cc(OC(F)(F)F)ccc3[nH]2)c1C` the melting point was 152 to 154 °C. Compound `CC(=O)Oc1ccc(CCc2ccc(OC(C)=O)cc2)cc1` has a melting point of 115 to 116 °C. Compound `CCCc1nc2c(N)nc3cc(Br)ccc3c2s1` has a melting point of 160 to 163 °C. For `N#Cc1c(C(F)(F)F)[nH]c2ccc(Br)cc12`, the melting point was 188 to 192 °C. With `O=c1cc(-c2ccc(O)c(CO)c2)oc2cccnc12` the melting point was 226 to 227 °C. `CCCCOCCOc1ccc(-c2cc3c4c(c2)OCCN4CCCC(C(=O)O)=C3)cc1` showed a melting point of 205 to 209 °C. In the case of `Cn1cnc2nc(-c3cc(C(C)(C)C)c(O)c(C(C)(C)C)c3)nn2c1=S`, the melting point was over 300 °C. Compound `CCCCOc1nc(N)c2nc(OC)n(CCSc3cccc(CC(=O)O)c3)c2n1` has a melting point of 205 to 207 °C. `CC(=O)OC[C@H]1O[C@@H](Cn2ccc(=S)[nH]c2=O)[C@@H](OC(C)=O)[C@@H]1OC(C)=O` showed a melting point of 100 to 105 °C. Compound `CC1(C)C=C(C(=O)O)CC1` has a melting point of 67 to 69 °C. Work on `C=CCN1Cc2nc3c(cnn3CCCl)c(N)c2C1=O` yielded a melting point of 198 to 199 °C. Work on `CCCCC(=NNC(N)=S)OCC` yielded a melting point of 73 to 74.5 °C. Compound `O=c1n(CO)c2cccnc2n1-c1ccc2c(c1)OCO2` has a melting point of 268 °C. Compound `CC(=O)N1CCCC(=O)c2cc(Cl)c(Cl)cc2CCC1=O` has a melting point of 163 to 165 °C. With `CNc1ccc(CC(=O)C(=O)O)cc1` the melting point was 210 °C. Work on `CSC(Oc1cc(I)c2ncc(Br)cc2c1)C(=O)NC(C)(C)C` (configuration not stated) yielded a melting point of 171 to 172 °C. `CCC(CC)Nc1c([N+](=O)[O-])cc(C#N)c(COC)c1[N+](=O)[O-]` showed a melting point of 46 to 49 °C. `Oc1cc2[nH]c3ccccc3c2cc1O` gave a melting point of 279 to 283 °C. For `COc1ccc(-c2nc(N)sc2-c2ccncc2)cc1`, the melting point was 282 to 284 °C. Compound `COC(=O)c1cc(S(C)(=O)=O)c(S(F)(F)(F)(F)F)cc1C` has a melting point of 127 °C. With `CC1(C)C(=O)Oc2ccc(Br)cc21` the melting point was 55 to 56 °C. Compound `CC(=O)c1ccc(-c2nc(O)c(C)s2)cc1` has a melting point of 219 to 220 °C. `Nc1nc(CC(=O)Nc2cccc(C(F)(F)F)c2)cs1` showed a melting point of 116 to 118 °C. In the case of `[N-]=[N+]=NC[C@H]1CN(c2ccc(Br)cn2)C(=O)O1`, the melting point was 64 to 67 °C. In the case of `CC(c1ccc(O)cc1)(c1ccc(O)cc1)c1ccc(-c2ccccc2)cc1`, the melting point was 182 to 183 °C. `COc1ccc(NC(=N)c2ccccc2)cc1NC(=O)/C=C/c1ccccc1C(F)(F)F` showed a melting point of 208 to 210 °C. With `CCn1c(=O)c2cnc(N)nc2n(CC)c1=O` the melting point was 230 to 232 °C. For `N#Cc1ccc(NC(=O)c2cccc(S(=O)(=O)N3CCOCC3)c2)c(-c2n[nH]c(=O)o2)c1`, the melting point was 283 to 285 °C. `NNC(=O)c1ccc2occ(-c3cccc(OC(F)(F)F)c3)c2c1` showed a melting point of 137 to 138 °C. `COc1ccc(-c2nc3cc(C(C(C)C)n4ccnc4)ccc3[nH]c2=O)cc1OC` (configuration not stated) gave a melting point of 243 °C. Compound `CCCCCCCCCCN(O)C(=O)NC` has a melting point of 96 to 97 °C. Compound `CCOC(OCC)c1cc(NC(c2ccccc2)(c2ccccc2)c2ccccc2)c(F)cn1` has a melting point of 125 to 127 °C. With `CC(C)CCNc1nc2ccccc2cc1[N+](=O)[O-]` the melting point was 99 to 100 °C. `CONC(=O)C(Oc1cc(OCc2ccsc2)ccc1C#N)c1ccccc1C` (racemic) showed a melting point of 155 to 156 °C. `CCN(CC)C(=O)c1nc2n(n1)-c1ccc(Cl)cc1C(c1ccccc1)=NC2` showed a melting point of 175 to 177 °C. Work on `CCN(CC)c1ccc(C2(c3ccc(N(CC)CC)cc3N(CC)CC)OC(=O)c3c(Cl)c(Cl)c(Cl)c(Cl)c32)c(C)c1` (configuration not stated) yielded a melting point of 162 to 164 °C. With `Cc1cc(-n2nc(C(N)=O)nc2-c2ccccc2)ccc1F` the melting point was 123 to 126 °C. In the case of `CC(C)(C)c1cc(-c2nc(CN3CCCC3)no2)cc(C(C)(C)C)c1O`, the melting point was 100 to 102 °C. Work on `CC12CC(F)C3C4CCC(=O)C=C4C=CC3C1CCC2=O` (configuration not stated) yielded a melting point of 198 °C. `CN(C)C(=N[N+](=O)[O-])N(C)Cc1ccc(Cl)nc1` showed a melting point of 99 to 101 °C. With `CC(C(=O)N(C)C)n1cc(I)c(-c2ccccc2)n1` (configuration not stated) the melting point was 108 to 111 °C. Compound `Cc1ccc(CN2CCN(c3cc(-c4ccccc4)ccn3)CC2)cc1` has a melting point of 103 °C. For `c1ccc(C(CCOc2ccc(Cc3nnn[nH]3)cc2)(c2ccccc2)c2ccccc2)cc1`, the melting point was 187 to 189 °C. Work on `CCCc1c(-c2cccnn2)ssc1=S` yielded a melting point of 77 °C. With `CC1CCCC(C)N1NC(=O)Nc1cccc2c1C(=O)c1c-2n[nH]c1-c1ccc(N2CCNCC2)cc1` (configuration not stated) the melting point was 270 °C. In the case of `O=C(O)Cn1cc(Cc2nc3c(F)c(F)cc(F)c3s2)c2cccc(Cl)c21`, the melting point was 228 to 230 °C. Compound `C=C(c1ccc(C(=O)N(C)OC)cc1)C(O)(Cn1cncn1)c1ccc(F)cc1F` (configuration not stated) has a melting point of 154 to 156 °C. `COOc1ccc(S(=O)(=O)c2cnc(C)nc2Cc2c(C)cc(C)cc2C)cc1` showed a melting point of 150 to 152 °C. In the case of `CCCC(=O)c1cnc2c(OCCOC)cccc2c1Nc1ccc(F)cc1C`, the melting point was 124 to 125 °C. `COc1cc(CCCCC2OC(=O)NC2=O)ccc1OCc1csc(/C=C/c2ccccc2)n1` (configuration not stated) showed a melting point of 167 to 168 °C. `Cc1c(C)c(C)c(S(=O)(=O)NCCc2ccc(C(=CCCCC(=O)O)c3cccnc3)cc2)c(C)c1C` showed a melting point of 158 to 160 °C. For `O=C1CCC(N2Cc3c(OCc4cc(Cl)ccc4Cl)cccc3C2=O)C(=O)N1` (configuration not stated), the melting point was 256 to 258 °C. `CC(N)C(=O)Nc1cc(OCC(F)(F)F)ccc1-c1ccccn1` (configuration not stated) showed a melting point of 85 to 86 °C. Work on `CC(C)c1c(C=CC2CC(O)CC(O)O2)n(-c2ccc(Cl)cc2)c(=O)c2ccccc12` (mixture of isomers) yielded a melting point of 181 to 185 °C. In the case of `CC(C)(C)OCC(O)CN` (configuration not stated), the melting point was 41 to 43 °C. `CCOC(OCC)N1C(=O)C(c2ncnc3cc(OCCOC)c(OC)cc23)c2ccccc21` (configuration not stated) showed a melting point of 148 to 150 °C. Compound `COc1cc2cnn(CCO)c(=O)c2cc1OC` has a melting point of 174 to 176 °C.
